Results published in patent publication US6846913B1, “Crude extract from Viscum album coloratum, and proteins and lectins isolated therefrom” (Mistle Biotech Co., Ltd., priority 1999, dated 2005).

The compounds below were run on hemagglutination of KML-IIU and KML-IIL. Settings: sugars stepwise diluted from 100 mM.
Set-up: species or system Korean mistletoe

Compound | Minimal Conc. (mM) necessary to inhibit the hemagglutination
O=C[C@H](O)[C@@H](O)[C@@H](O)[C@H](O)CO [Galactose] | 6 mM
OC[C@H]1O[C@@H](O[C@H]2[C@H](O)[C@@H](O)C(O)O[C@@H]2CO)[C@H](O)[C@@H](O)[C@H]1O (stereo partly shown) [Lactose] | 3 mM
CC(=O)N[C@H]1C(O)O[C@H](CO)[C@H](O)[C@@H]1O (stereo partly shown) [N-Acetylgalactosamine] | 3 mM
CC(=O)N[C@H]1C(O)O[C@H](CO)[C@@H](O)[C@@H]1O (stereo partly shown) [N-Acetylglucosamine] | >100 mM
